By solubility is commonly meant the concentration that dissolves in the medium under given conditions. The term IC50 denotes the midpoint of a concentration-inhibition curve. Low readings indicate inhibition by little substance, high ones a need for much substance.

Data on 20 compounds can be found in ChEMBL document CHEMBL4382254, “Design, synthesis, structure-activity relationships and mechanism of action of new quinoline derivatives as potential antitumor agents” (Eur J Med Chem, 2019).

A short description of data set [1]: Solubility of the compound in water. It counts as physicochemical.
Another data set deals with DLD-1. Description: Cytotoxicity against human DLD1 cells after 48 hrs by MTT assay. The following applies: DLD-1, 48 h. It counts as functional, cell-based. Background: Tetrazolium assays rely on reduction of a dye to a coloured formazan, in cell work by metabolically active cells.
Another data set has as its system BGC-823. Description: Cytotoxicity against human BGC823 cells after 48 hrs by MTT assay. It counts as functional, cell-based. The following applies: BGC-823, 48 h.
Another data set concerns HCT-116. Description: Cytotoxicity against human HCT116 cells after 48 hrs by MTT assay. In kind it is functional, cell-based. As to conditions: HCT-116, 48 h.
In the next data set the test system is RKO. Description: Cytotoxicity against human RKO cells after 48 hrs by MTT assay. In kind it is functional, cell-based.
The test system of the next data set is SK-OV-3. Description: Cytotoxicity against human SKOV3 cells after 48 hrs by MTT assay. It counts as functional, cell-based. As to conditions: SK-OV-3, 48 h.
The next data set deals with NCI-H1650. Description: Cytotoxicity against human NCI-H1650 cells after 48 hrs by MTT assay. The following applies: NCI-H1650, 48 h. It counts as functional, cell-based.
The next data set has as its system HepG2. The data set can be described thus: Cytotoxicity against human HepG2 cells after 48 hrs by MTT assay. In kind it is functional, cell-based. As to conditions: HepG2, 48 h.

In the case of `C=CCOc1ccc2c(NCCCN(C)C)ccnc2c1`, the solubility in data set [1] is greater than 10000 µg/mL. Moreover, the IC50 turned out to be 5180 nM with DLD-1; 6680 nM in the data set with BGC-823; 2100 nM in the data set on HCT-116; 3560 nM with RKO; 4250 nM in the data set with SK-OV-3; 3120 nM with NCI-H1650. In the data set with HepG2, this compound had an IC50 of 3990 nM.

`C=CCOc1ccc2c(NCCN(C)C)ccnc2c1` registered a solubility in data set [1] greater than 10000 µg/mL. In addition, the IC50 in the data set with DLD-1 came out at 1530 nM; in the data set on BGC-823, 1360 nM; in the data set on HCT-116 it was 860 nM; in the data set with RKO, 1270 nM; in the data set with SK-OV-3 it was 1560 nM; in the data set with NCI-H1650, 930 nM. For the same compound, in the data set with HepG2, the IC50 turned out to be 1660 nM.

For the compound `CN(C)CCCNc1ccnc2cc(OCc3ccc(F)cc3)ccc12`, in data set [1], the solubility was greater than 10000 µg/mL. The IC50 in the data set with DLD-1 is 2540 nM; in the data set with BGC-823 it was 490 nM; in the data set with HCT-116, 740 nM; in the data set with RKO, 1230 nM; in the data set on SK-OV-3 it was 1280 nM; in the data set with NCI-H1650, 940 nM. The compound also yielded a 50% inhibitory concentration (IC50) with HepG2 of 1570 nM.

As for `CN(C)CCNc1ccnc2cc(OCc3ccccc3)ccc12`, the solubility in data set [1] is greater than 10000 µg/mL. Besides, the half-inhibitory concentration (IC50) in the data set with DLD-1 is 2140 nM; in the data set on BGC-823 it was 1250 nM; with HCT-116, 1980 nM; in the data set with RKO it was 2350 nM; in the data set on SK-OV-3 it was 2350 nM; in the data set on NCI-H1650, 1620 nM. In addition, the IC50 with HepG2 stood at 3120 nM.

In data set [1], `CCOc1ccc2c(NCCCN(C)C)ccnc2c1` came in with a solubility greater than 10000 µg/mL. For the same compound, the IC50 in the data set with DLD-1 amounted to 8540 nM; with BGC-823, 9810 nM; in the data set with HCT-116, 3380 nM; in the data set on RKO it was 5240 nM; in the data set on SK-OV-3, 6780 nM; in the data set on NCI-H1650 it was 3830 nM. The same compound yielded an IC50 in the data set with HepG2 of 5860 nM.

As for `CCCCCCOc1ccc2c(NCCN(C)C)ccnc2c1`, the solubility in data set [1] was greater than 10000 µg/mL. Further, the IC50 with DLD-1 was 1870 nM; with BGC-823, 1090 nM; with HCT-116, 850 nM; with RKO, 1120 nM; in the data set with SK-OV-3, 1860 nM; with NCI-H1650 it was 930 nM. The compound further returned an IC50 in the data set on HepG2 of 1370 nM.

As to `CC(C)Oc1ccc2c(Cl)ccnc2c1`, the IC50 in the data set with DLD-1 turned out to be 3240 nM; in the data set with BGC-823 it was 2630 nM; in the data set on HCT-116 it was 2590 nM; in the data set on RKO it was 2690 nM; in the data set on SK-OV-3, 3060 nM; with NCI-H1650, 2310 nM. The same compound showed an IC50 in the data set with HepG2 of 2050 nM.

In the case of `Oc1ccnc2cc(Cl)ccc12`, the IC50 in the data set on DLD-1, in the data set with BGC-823, in the data set on HCT-116, in the data set with RKO, in the data set on SK-OV-3 and in the data set on NCI-H1650 was greater than 10000 nM in each case. The compound further yielded an IC50 in the data set with HepG2 greater than 10000 nM.

`CCOc1ccc2c(Cl)ccnc2c1`: the IC50 with DLD-1 came out at 2750 nM; in the data set with BGC-823, 3910 nM; in the data set with HCT-116, 3160 nM; in the data set with RKO, 3870 nM; in the data set with SK-OV-3, 3460 nM; in the data set on NCI-H1650 it was 3340 nM. The half-inhibitory concentration (IC50) in the data set on HepG2 was 2660 nM.

On to `CC(C)COc1ccc2c(Cl)ccnc2c1`, for which the IC50 with DLD-1 was found to be 3100 nM; with BGC-823, 3030 nM; in the data set with HCT-116, 2490 nM; in the data set on RKO, 2680 nM; in the data set on SK-OV-3, 3190 nM; with NCI-H1650 it was 2100 nM. Further, inhibition in the data set on HepG2 was half-maximal at 2250 nM (IC50).

For `COc1ccc2c(Cl)ccnc2c1`, the IC50 in the data set on DLD-1 is greater than 10000 nM; with BGC-823, greater than 10000 nM; in the data set on HCT-116, 8820 nM; in the data set with RKO, 9650 nM; in the data set with SK-OV-3, greater than 10000 nM; with NCI-H1650, 8160 nM. Also, inhibition in the data set on HepG2 was half-maximal at 6070 nM (IC50).

On to `C=CCOc1ccc2c(Cl)ccnc2c1`, for which the IC50 in the data set with DLD-1 was determined as 2890 nM; with BGC-823, 2930 nM; in the data set on HCT-116 it was 2570 nM; in the data set on RKO it was 2460 nM; with SK-OV-3 it was 4030 nM; with NCI-H1650, 2280 nM. Moreover, the half-inhibitory concentration (IC50) with HepG2 amounted to 2770 nM.

Turning to `CCCCCCOc1ccc2c(Cl)ccnc2c1`, the IC50 was 2660 nM in the data set with DLD-1; 2380 nM in the data set on BGC-823; 2440 nM with HCT-116; 2720 nM in the data set on RKO; greater than 10000 nM in the data set on SK-OV-3; 2080 nM with NCI-H1650. Moreover, in the data set on HepG2, the concentration for half-maximal inhibition (IC50) was 2420 nM.

In the case of `Clc1ccnc2cc(OCCCc3ccccc3)ccc12`, the concentration for half-maximal inhibition (IC50) turned out to be 2140 nM with DLD-1; 2370 nM in the data set with BGC-823; 800 nM in the data set on HCT-116; 1420 nM in the data set with RKO; 3610 nM in the data set on SK-OV-3; 630 nM in the data set with NCI-H1650. Besides, the IC50 in the data set with HepG2 came to 1780 nM.

On to `Clc1ccnc2cc(OCc3ccccc3)ccc12`, for which the half-inhibitory concentration (IC50) in the data set on DLD-1 was 3270 nM; with BGC-823, 5170 nM; in the data set on HCT-116, 2470 nM; in the data set with RKO it was 2410 nM; in the data set with SK-OV-3, 5170 nM; in the data set on NCI-H1650, 2720 nM. The 50% inhibitory concentration (IC50) with HepG2 turned out to be 2680 nM.

For the compound `Clc1ccnc2cc(OCCc3ccccc3)ccc12`, the IC50 in the data set on DLD-1 came out at 3380 nM; with BGC-823, 2010 nM; in the data set on HCT-116, 2180 nM; in the data set with RKO, 2560 nM; with SK-OV-3, 2010 nM; in the data set with NCI-H1650, 2300 nM. The IC50 in the data set with HepG2 is 3310 nM.

`CCOc1ccc2c(NCCN(C)C)ccnc2c1` gave a solubility in data set [1] greater than 10000 µg/mL. For the same compound, the IC50 was determined as 6240 nM in the data set on DLD-1; 2520 nM in the data set with BGC-823; 2570 nM in the data set with HCT-116; 3650 nM in the data set on RKO; 4620 nM in the data set on SK-OV-3; 3490 nM in the data set with NCI-H1650. The compound also came in with an IC50 in the data set with HepG2 of 5680 nM.

Turning to `Fc1ccc(COc2ccc3c(Cl)ccnc3c2)cc1`, the IC50 with DLD-1 was found to be 3230 nM; in the data set on BGC-823 it was 2780 nM; in the data set on HCT-116, 2070 nM; with RKO, 1980 nM; in the data set with SK-OV-3, 2780 nM; with NCI-H1650 it was 2230 nM. This compound showed an IC50 in the data set with HepG2 of 3010 nM.

As to `CCCCCCCCOc1ccc2c(Cl)ccnc2c1`, the IC50 stood at 4500 nM in the data set on DLD-1; 4300 nM in the data set on BGC-823; 2820 nM in the data set with HCT-116; 3640 nM in the data set with RKO; 4300 nM with SK-OV-3; 3240 nM in the data set with NCI-H1650. The compound also showed an IC50 in the data set on HepG2 of 2640 nM.

Turning to `CCCCOc1ccc2c(Cl)ccnc2c1`, the IC50 in the data set on DLD-1 amounted to 3780 nM; with BGC-823 it was 3610 nM; in the data set with HCT-116, 2740 nM; in the data set with RKO it was 3050 nM; in the data set on SK-OV-3 it was 4130 nM; with NCI-H1650 it was 2570 nM. Also, in the data set on HepG2, the IC50 turned out to be 2640 nM.
